{"source": "patent US12336999B2", "about": "“Modified release formulations of 2-[3-[4-amino-3-(2-fluoro-4-phenoxy-phenyl) pyrazolo[3,4-d] pyrimidin-1-yl]piperidine-1-carbonyl]-4-methyl-4-[4-(oxetan-3-yl) piperazin-1-yl]pent-2-enenitrile” (Principia Biopharma Inc., priority 2016, dated 2025)", "origin": "cited, not measured here", "note": "Where two headings read alike, the source gives them in different places."}
{"smiles": "C=CC(=O)N1CCC[C@@H](n2nc(-c3ccc(Oc4ccccc4)cc3)c3c(N)ncnc32)C1", "note": "[ibrutinib]", "values": [{"measurement": "bioavailability as determined by AUC", "setting": "administered intraduodenally", "result": 100, "unit": "%"}, {"measurement": "bioavailability as determined by AUC", "setting": "direct oral administration", "result": 21, "unit": "%"}]}
